Reference: ChEMBL document CHEMBL2448688, “Selection and optimization of hits from a high-throughput phenotypic screen against Trypanosoma cruzi. Exported from HEOS 25-Oct-2013. See also related datasets CHEMBL3137440 and CHEMBL3137386”
In brackets after ≈: the same amount, converted by molar mass. Several values for one entry are separate records, joined by “and”; a condition that tells them apart may be missing. Equal values may be shown once.

Legend:
[1] = tested on: Trypanosoma brucei rhodesiense; experiment: (§1) DNDI: HAT in Vitro; format: functional, organism-based, ATCC 30027
[2] = (§2) DNDI: Cytotoxicity in vitro, against rat skeletal myoblast (L-6) cells; conditions: L-6 cells (skeletal myoblasts), IC50
[3] = tested on: Trypanosoma cruzi; experiment: (§3) DNDI: Chagas in Vitro; format: functional, Tulahuen C4 (LacZ)
[4] = tested on: Trypanosoma cruzi; experiment: as §3; format: functional, organism-based, Tulahuen C4 (LacZ)
[5] = biological target: T1, Cytochrome P450 3A4 (Homo sapiens, UniProt P08684); experiment: DNDI: CYP Inhibition; format: ADME
T1 sequence (P08684 whole entry): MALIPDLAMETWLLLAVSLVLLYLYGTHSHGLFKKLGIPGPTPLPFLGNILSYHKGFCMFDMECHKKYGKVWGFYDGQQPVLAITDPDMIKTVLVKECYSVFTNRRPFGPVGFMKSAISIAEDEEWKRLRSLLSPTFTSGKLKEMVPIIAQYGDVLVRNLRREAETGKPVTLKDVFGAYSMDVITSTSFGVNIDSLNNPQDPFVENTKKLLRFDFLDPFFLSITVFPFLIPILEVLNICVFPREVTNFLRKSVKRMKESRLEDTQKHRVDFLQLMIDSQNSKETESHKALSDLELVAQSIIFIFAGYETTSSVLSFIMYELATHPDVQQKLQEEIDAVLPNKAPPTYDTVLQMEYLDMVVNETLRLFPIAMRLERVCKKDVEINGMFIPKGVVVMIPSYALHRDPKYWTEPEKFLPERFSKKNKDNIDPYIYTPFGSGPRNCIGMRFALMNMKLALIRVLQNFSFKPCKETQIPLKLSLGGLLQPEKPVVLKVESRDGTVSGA

[6] = in vitro; conditions: human, microsomes, t (1 / 2)
[7] = DNDI: Lipophilicity (gLogD) at pH 3; conditions: buffer, pH 3, logD
[8] = human, microsomes
[9] = DNDI: Solubility in phosphate buffer at pH 6.5 determined by nephelometry; conditions: for solubility kinetic: phosphate buffer, pH 6.5, Kinetic
[10] = human, microsomes; remark: listed apart in the source
[11] = human, microsomes; remark: listed apart in the source
[12] = in vitro; conditions: human, microsomes
[13] = DNDI: Solubility in 0.01M HCl at pH 2 determined by nephelometry; conditions: for solubility kinetic: 0.01M HCl, pH 2, Kinetic
[14] = DNDI: Lipophilicity (gLogD) at pH 7.4; conditions: buffer, pH 7.4, logD
[15] = in vitro; conditions: rat, microsomes
[16] = DNDI: Protein binding in mouse plasma
[17] = tested on: Trypanosoma cruzi; experiment: DNDI: Chagas in vivo at 20 mg/kg, 20 days 2x; format: functional, Tulahuen Swiss po
[18] = in vitro; conditions: mouse, microsomes
[19] = DNDI: Permeability in CACO-2 cells at pH 7.4 (A to B); format: ADME, cell-based; conditions: human, Caco-2, pH 7.4
[20] = in vitro; conditions: rat, hepatocytes
[21] = biological target: Cytochrome P450 2C19 (Homo sapiens, UniProt P33261)
Chain of Cytochrome P450 2C19 (P33261 whole entry): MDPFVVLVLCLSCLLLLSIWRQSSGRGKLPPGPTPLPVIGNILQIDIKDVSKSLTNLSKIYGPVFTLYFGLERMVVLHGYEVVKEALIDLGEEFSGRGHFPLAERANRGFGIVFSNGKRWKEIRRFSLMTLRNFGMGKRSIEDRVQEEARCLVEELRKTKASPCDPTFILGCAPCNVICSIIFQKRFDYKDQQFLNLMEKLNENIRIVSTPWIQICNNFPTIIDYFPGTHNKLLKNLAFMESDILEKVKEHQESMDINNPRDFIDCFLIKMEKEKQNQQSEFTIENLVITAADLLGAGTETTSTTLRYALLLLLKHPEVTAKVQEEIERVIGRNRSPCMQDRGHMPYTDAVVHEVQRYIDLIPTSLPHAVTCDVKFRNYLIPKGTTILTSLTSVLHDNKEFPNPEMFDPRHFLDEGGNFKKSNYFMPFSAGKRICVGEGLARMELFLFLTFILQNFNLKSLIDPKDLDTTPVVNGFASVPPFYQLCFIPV

[22] = biological target: Cytochrome P450 2C9 (Homo sapiens, UniProt P11712)
Chain of Cytochrome P450 2C9 (P11712 whole entry): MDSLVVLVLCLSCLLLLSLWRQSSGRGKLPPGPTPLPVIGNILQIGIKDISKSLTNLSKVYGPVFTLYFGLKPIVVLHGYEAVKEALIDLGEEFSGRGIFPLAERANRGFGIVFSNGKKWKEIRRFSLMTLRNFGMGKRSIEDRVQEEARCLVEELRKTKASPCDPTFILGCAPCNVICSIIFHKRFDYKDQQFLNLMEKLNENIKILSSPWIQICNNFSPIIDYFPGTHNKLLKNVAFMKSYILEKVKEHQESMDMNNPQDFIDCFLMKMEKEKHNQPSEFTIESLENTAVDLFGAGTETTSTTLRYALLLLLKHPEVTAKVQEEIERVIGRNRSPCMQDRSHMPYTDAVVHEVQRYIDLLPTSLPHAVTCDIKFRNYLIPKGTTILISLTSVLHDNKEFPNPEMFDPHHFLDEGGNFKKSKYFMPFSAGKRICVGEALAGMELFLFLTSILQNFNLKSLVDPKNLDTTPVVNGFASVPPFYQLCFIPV

[23] = in vitro; conditions: rat, microsomes; remark: listed apart in the source
[24] = biological target: Cytochrome P450 2D6 (Homo sapiens, UniProt P10635)
Chain of Cytochrome P450 2D6 (P10635 whole entry): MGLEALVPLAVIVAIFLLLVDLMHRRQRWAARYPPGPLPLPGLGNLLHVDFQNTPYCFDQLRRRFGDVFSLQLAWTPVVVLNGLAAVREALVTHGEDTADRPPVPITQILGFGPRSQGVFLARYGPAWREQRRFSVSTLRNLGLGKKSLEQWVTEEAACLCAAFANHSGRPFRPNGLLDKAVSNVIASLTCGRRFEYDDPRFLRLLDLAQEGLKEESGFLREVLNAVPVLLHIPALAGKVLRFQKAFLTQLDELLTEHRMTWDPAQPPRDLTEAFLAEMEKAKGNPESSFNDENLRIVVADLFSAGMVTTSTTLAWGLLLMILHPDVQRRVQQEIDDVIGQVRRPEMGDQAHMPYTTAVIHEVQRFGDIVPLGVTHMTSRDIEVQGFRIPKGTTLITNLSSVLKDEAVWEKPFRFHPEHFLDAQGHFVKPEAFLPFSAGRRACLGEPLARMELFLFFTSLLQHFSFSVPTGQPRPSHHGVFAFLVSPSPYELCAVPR

[25] = DNDI: Protein binding in rat plasma; format: ADME, cell-free; conditions: read-out: % bound (converted)
[26] = DNDI: Metabolism; format: ADME, Microsome; conditions: rat, microsomes
[27] = biological target: T2, Cytochrome P450 1A2 (Homo sapiens, UniProt P05177)
T2 sequence (P05177 whole entry): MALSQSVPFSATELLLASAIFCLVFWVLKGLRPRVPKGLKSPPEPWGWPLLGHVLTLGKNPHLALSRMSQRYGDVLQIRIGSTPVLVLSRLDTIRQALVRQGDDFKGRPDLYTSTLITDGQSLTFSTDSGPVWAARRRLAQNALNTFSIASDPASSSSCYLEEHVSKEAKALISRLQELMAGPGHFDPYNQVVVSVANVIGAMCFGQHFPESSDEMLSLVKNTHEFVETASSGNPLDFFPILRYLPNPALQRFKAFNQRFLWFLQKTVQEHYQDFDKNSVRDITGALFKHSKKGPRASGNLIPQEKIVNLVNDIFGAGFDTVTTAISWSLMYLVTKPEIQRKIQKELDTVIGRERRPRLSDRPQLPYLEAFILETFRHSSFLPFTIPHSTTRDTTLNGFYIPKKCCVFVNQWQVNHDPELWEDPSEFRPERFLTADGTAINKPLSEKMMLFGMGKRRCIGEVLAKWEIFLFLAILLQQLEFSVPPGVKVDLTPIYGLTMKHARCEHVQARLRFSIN

[28] = in vitro; conditions: mouse, microsomes; remark: listed apart in the source
[29] = tested on: Leishmania infantum; experiment: DNDI: Leish In Vivo - % inhibition and MSD at 50 mg/kg, 5 days 2x; format: functional, MHOM/MA(BE)/67 Hamster-Early curative model po
[30] = tested on: Trypanosoma brucei brucei; experiment: as §1; format: functional, organism-based; conditions: SBRI 427
[31] = tested on: Leishmania infantum; experiment: DNDI: Leish (macro) in Vitro; format: functional, organism-based, MHOM/MA(BE)/67
[32] = tested on: Trypanosoma brucei brucei; experiment: DNDI: HAT in vivo at 50 mg/kg, 4 adm days; format: functional, EATRO 110 po
[33] = in vitro; conditions: human, microsomes, EH
[34] = tested on: L6; experiment: as §2; conditions: L-6 cells (skeletal myoblasts)
[35] = biological target: T1, Cytochrome P450 3A4; experiment: DNDI: Human CYP3A4 inhibition determined using 6b-hydroxylation of testosterone
[36] = in vitro; conditions: rat, microsomes; remark: listed apart in the source
[37] = biological target: T3, CYP3A4 (Homo sapiens, UniProt P08684); experiment: DNDI: Human CYP3A4 inhibition at 1 uM determined using 6b-hydroxylation of testosterone; conditions: probe testosterone (6b-hydroxylation)
T3 sequence (P08684 whole entry): as the sequence (P08684 whole entry) above

[38] = biological target: T3, CYP3A4; experiment: DNDI: Human CYP3A4 inhibition at 10 uM determined using 6b-hydroxylation of testosterone; conditions: probe testosterone (6b-hydroxylation)
[39] = in vitro; conditions: mouse, microsomes; remark: listed apart in the source
[40] = (§4) DNDI: Stability, 4 hour; format: ADME, cell-free; conditions: mouse, plasma
[41] = as §4; format: ADME, tissue-based; conditions: mouse, blood
[42] = in vitro; conditions: rat, hepatocytes; remark: listed apart in the source
[43] = tested on: Trypanosoma cruzi; experiment: DNDI: Chagas in vivo at 20 mg/kg, 20 days 1x; format: functional, Tulahuen Swiss po
[44] = tested on: Trypanosoma cruzi; experiment: DNDI: Chagas in vivo at 50 mg/kg, 20 days 1x; format: functional, Tulahuen Swiss po
[45] = Trypanosoma cruzi, Tulahuen C4 (LacZ)

IC50 ([1]; Trypanosoma brucei, ATCC 30027) [nM]	IC90 [3, 45] [nM]	IC50 [4, 45] [nM]	half-life [6] [h]	chromatographic logD [7]	solubility kinetic [9] [µg/mL]	microsomal CLint [12] [µL/min/mg]	solubility kinetic [13] [µg/mL]	chromatographic logD [14]	half-life [15] [h]	half-life [18] [h]	microsomal CLint [23] [µL/min/mg]	IC90 [3]	IC50 [4]	microsomal CLint [28] [µL/min/mg]	hepatic extraction ratio [33]	IC50 [35] [nM]	Structure (SMILES)	IC50 [2] [nM]	other results
> 10000	–	6	2.53	2.1	–	11	> 100	2.8	1.22	0.933	24	20.5 nM and 47 nM and > 100 nM	11.5 nM and 6.8 nM and 7 nM	31	–	–	N#Cc1ccc(-n2ccnc2)c(NC(=O)c2cnc(-c3ccccc3)s2)c1	> 100000	fraction unbound [16]: 0.064; PCR cure rate [17]: 0%; Parasitemia clearance after immunosuppression [17]: 0%; Parasitemia clearance after treatment [17]: 100%; Papp A→B [19]: 82 ×10⁻⁶ cm/s; CLhep predicted [20]: 17.2 mL/min/kg; IC50 [21]: 15900 nM; IC50 [22]: > 20000 nM; IC50 [24]: 2700 nM; fraction unbound [25]: 0.043; CLblood [26]: 25 mL/min/kg; IC50 [27]: > 20000 nM
–	–	–	0.95	2.3	–	30	> 100	3.1	0.45	–	64	> 100 nM and 12.8 nM	–	–	0.54	2000	CO/N=C(\C)c1ccc(-n2ccnc2)c(NC(=O)c2ccc(-c3ccccn3)s2)c1	65600	IC50 [34]: 72500 nM; CLblood [26]: 42 mL/min/kg; hepatic extraction ratio [36]: 0.62
–	–	25.5	0.6	3.4	1.6 (≈ 4.11 µM)	48	> 100	3.8	–	–	–	257 nM and > 100 nM	26 nM	–	0.73	–	O=c1c2ccccc2nc(-c2ccc(-c3ccccc3)cc2)n1Cc1cccnc1	16100	IC50 [1]: 23300 nM and > 10000 nM; IC50 [34]: 19400 nM; IC50 [5]: > 20000 nM
> 10000	37	3	2.67	–	–	11	–	–	–	–	–	–	–	–	0.38	> 20000	CCOC(=O)c1ccc(-n2ccnc2)c(NC(=O)c2cnc(-c3ccccc3)nc2)c1	> 100000	remaining at 4 h [40]: 1.8%; remaining at 4 h [41]: 0.4%
–	16	6.7	1.8	–	–	16	–	–	1.07	0.35	27	14 nM	6 nM	83	0.38	1400	CO/N=C(\C)c1ccc(-n2ccnc2)c(NC(=O)c2cnn(-c3ccccn3)c2)c1	> 100000	fraction unbound [16]: 0.022; PCR cure rate [17]: 0%; Parasitemia clearance after immunosuppression [17]: 0%; Parasitemia clearance after treatment [17]: 80%; CLhep predicted [20]: 34.3 mL/min/kg; hepatic extraction ratio [39]: 0.78; hepatic extraction ratio [42]: 0.51; PCR cure rate [43]: 0%; Parasitemia clearance after immunosuppression [43]: 0%; Parasitemia clearance after treatment [43]: 0%; PCR cure rate [44]: 0%; Parasitemia clearance after immunosuppression [44]: 0%; Parasitemia clearance after treatment [44]: 20%; fraction unbound [25]: 0.008; hepatic extraction ratio [36]: 0.47

More lines, now with the values behind:

Structure (SMILES)	IC50 ([1]; Trypanosoma brucei, ATCC 30027) [nM]	IC90 [3, 45] [nM]	IC50 [4, 45] [nM]	half-life [6] [h]	chromatographic logD [7]	solubility kinetic [9] [µg/mL]	microsomal CLint [12] [µL/min/mg]	solubility kinetic [13] [µg/mL]	chromatographic logD [14]	half-life [15] [h]	half-life [18] [h]	microsomal CLint [23] [µL/min/mg]	IC90 [3]	IC50 [4]	microsomal CLint [28] [µL/min/mg]	hepatic extraction ratio [33]	IC50 [35] [nM]	IC50 [2] [nM]	other results
OC(COc1ccc2cc(Br)ccc2c1)Cn1ccnc1 (stereo unspecified)	> 10000	193	30	–	–	–	–	–	–	–	–	–	–	–	–	–	–	65900	IC50 [5]: 700 nM
CC(=O)N(Cc1cccnc1)c1ccc(-c2nc3ccccc3s2)cc1	–	–	–	0.293	2.18	11.9 (≈ 33 µM)	98.3	71 (≈ 198 µM)	> 3.94	–	–	–	–	–	–	–	–	–	t (1 / 2) [8]: 24 min; CLint in vitro [10]: 72 µL/min/mg; EH [11]: 0.74 none
CN1CCC(NCC(O)COc2ccc3cc(Br)ccc3c2)CC1 (stereo unspecified)	–	–	–	–	–	–	–	–	–	–	–	–	5670 nM and > 1000 nM and 8200 nM	853 nM and 3660 nM and 1930 nM	–	–	–	–	% inhibition in bone-marrow [29]: 41.4%; % inhibition in liver [29]: 26.8%; % inhibition in spleen [29]: 44.9%; IC50 [1]: 28 nM and 74.5 nM and 57 nM; IC50 [30]: 53 nM; IC50 [31]: 426 nM and 198 nM and 500 nM; MSD [32]: 7 days
Cl.NCC(=O)N(Cc1cccnc1)c1cc(F)cc(-c2nc3ccccc3s2)c1	–	125	49	–	–	53	–	57.5	2.29	–	–	–	–	–	–	–	–	> 100000	t (1 / 2) [8]: 58 min and 26.3 min; Kinetic ([9]; buffer, pH 6.5): > 100 µg/mL; CLint in vitro [10]: 66 µL/min/mg and 30 µL/min/mg; EH [11]: 0.54 none; Kinetic ([13]; buffer, pH 2): > 100 µg/mL
CC(=O)N(Cc1c[nH]cn1)c1ccc(-c2nc3ccccc3s2)cc1	–	27	13.5	2.05	1.6	–	14	> 100	2.1	–	1.35	–	–	–	21	0.35	> 10000	63400	inhibition at 1 µM [37]: 0.3%; inhibition at 10 µM [38]: 28.1%; hepatic extraction ratio [39]: 0.32
